In patent US11505581B2, “Antigens and T cell epitopes from cockroach and methods of making and using same” (La Jolla Institute for Allergy and Immunology, priority 2015, dated 2022):

Test system: PBMC
Assay: ELISPOT (IFNγ, IL-5, IL-10, IL-17, IL-21) of PBMC expanded 14 days with Bla g extract, then stimulated with peptides or peptide pools
Format: cell-based, human
Set-up: key to Average Magnitude of Response: spot forming cells (SFC) per 10^6 PBMC; Response Rate per Subject: unit not given here; key to % (percentage of subjects responding to given antigen) / SFC (mean magnitude of response): “—” denotes no response
Conditions: AR
Protocol: PBMC Isolation and Cell Cultures: PBMC (peripheral blood mononuclear cells) were isolated from 450 mL (one unit) of blood by density gradient centrifugation as described and cryopreserved. For in vitro expansion of PBMC for peptide screening, cells were cultured in RPMI1640 (Omega Scientific)+5% human AB serum (Gemini Bioscience), GlutaMAX (Gibco), and penicillin/streptomycin (Omega Scientific) at 2×10^6 per mL, stimulated with 10 ug/mL Bla g extract (Greer), and incubated at 37° C. in 5% CO2. Every three days, IL-2 and IL-7 (10 U/mL) were added to the cultures. Cells were harvested for peptide screening at day 14.
ELISPOT Assays: Production of IFNγ, IL-5, IL-17, IL-10, and IL-21 (as representative of TH1, TH2, TH17, TR1, and […], respectively) in response to peptide stimulation was measured by ELISPOT as described previously. […] In brief, 1×10^5 cells per well were incubated with peptide, peptide pool, or Bla g extract (10, 5, and 10 ug/ml, respectively) on anti-lymphokine antibody coated ELISPOT plates (Millipore #MSIPS4510) for 22 hours. Subsequently, secondary anti-lymphokine antibodies were added and incubated for 2 hours, washed, and avidin-peroxidase complex added for 1 hour. Plates were washed and spots developed with 3-amino-9-ethylcarbazole (Sigma #A6926) and Vector Blue (Vector #SK-5300) for IFNγ/IL-5 and IL-10/IL-17 dual plates or TMB (Sigma #T0565) for single IL-21. Criteria for peptide pool positivity were at least 100 spot forming cells (SFC) per 10^6 PBMC, p<0.05, and stimulation index≥2. Criteria for peptide positivity were identical except with a threshold of 20 SFCs.
We synthetized overlapping peptide sets of 15 amino acids in length overlapping by 10 residues and covering the entire sequence of known Bla g Allergens, i.e. Bla g 1-7, 9 and 11, referred from hereafter collectively as BLAGA. A total of 809 BLAGA peptides were arranged in pools, encompassing on average 20 peptides.
To assess T cell reactivity, we utilized a strategy applied to the definition of epitopes from various allergen sources^15,16 utilizing in vitro stimulation with allergen extracts. Here, PBMC from each subject were stimulated in vitro with Bla g extract. After 14 days, pools of overlapping 15-mer peptides from the BLAGA were tested for responses, and positive pools deconvoluted to identify the specific epitopes. As readout, we utilized ELISPOT assays specific for IL-5, IFNγ, IL-10, IL-17 and IL-21, chosen as representative of TH2, TH1, TR1, TH17 and TFH reactivity, respectively.

Substance	% (percentage of subjects responding to given antigen)	SFC (mean magnitude of response)
Receptor for activated protein kinase C [RACK1]	—	—
Triosephosphate isomerase [TPI]	6%	13 SFC

Same assay, conditions: Asthmatic (combines IA, MMA, SA)

Substance	% (percentage of subjects responding to given antigen)	SFC (mean magnitude of response)
Receptor for activated protein kinase C [RACK1]	9%	19 SFC
Triosephosphate isomerase [TPI]	11%	31 SFC

Same assay, conditions: Controls

Substance	% (percentage of subjects responding to given antigen)	SFC (mean magnitude of response)
Receptor for activated protein kinase C [RACK1]	2%	30 SFC
Triosephosphate isomerase [TPI]	2%	17 SFC

Same assay, conditions: IA

Substance	% (percentage of subjects responding to given antigen)	SFC (mean magnitude of response)
Receptor for activated protein kinase C [RACK1]	12%	31 SFC
Triosephosphate isomerase [TPI]	6%	6 SFC

Same assay, conditions: MMA

Substance	% (percentage of subjects responding to given antigen)	SFC (mean magnitude of response)
Receptor for activated protein kinase C [RACK1]	11%	3 SFC
Triosephosphate isomerase [TPI]	11%	83 SFC

Same assay, conditions: SA

Substance	% (percentage of subjects responding to given antigen)	SFC (mean magnitude of response)
Receptor for activated protein kinase C [RACK1]	—	—
Triosephosphate isomerase [TPI]	23%	54 SFC

Same assay, conditions: non-redundant epitopes; sensitized donors

Substance	Average Magnitude of Response	Response Rate per Subject
LKNYQLDSELRIKAF	3.2	1.4
LKYFNMGVQKFWAFD	19.8	8.6
LNAIEFINNIHDLLG	8.8	2.9
LNDYILPAPYEIYPW	3.0	2.9
LNIFTNNLGRINTHV (listed as Blattella germanica)	57.6	4.3
LNQEAHYQFDSIHKF	22.6	2.9
LNTYYSYYYFNYPTF	4.1	2.9
LRLSEHLDYVKNLTV	3.1	1.4
LTVFDSTSCNVVVAS	4.0	2.9
LVFLRNAKIELKPNQ	4.0	2.9
LVYPTSLGFPLKLVL	4.4	2.9
LWEINMIKAIISQLQ	3.5	2.9
MAPSYKLTYCPVKAL	8.8	4.3
MGVQKFWAFDNTTFS	7.3	7.1
MIVDTISDFRAAIAN (listed as Blattella germanica)	91.4	7.1
MNITGSINLMFSQMY	7.6	5.7
NAIEFLNNIHDLLGI	3.0	1.4
NASAVIQEFLKTYKK	5.0	2.9
NDIEKRVPFSHDDRL (listed as Blattella germanica)	72.8	15.7
NGGYLAAGKLTWADF (listed as Blattella germanica)	58.5	5.7
NIACLLHNKYDSTKS (listed as Blattella germanica)	61.0	2.9
NLEIDMIVDTISDFR	19.1	2.9
NTTFSNASAVIQEFL	4.2	5.7

Substance	Average Magnitude of Response	Response Rate per Subject
NVIYSQNSFLPRATT	3.8	1.4
NYAIVEGCPAAANGH (listed as Blattella germanica)	64.6	1.4
PAIKAWVAKRPPTDL	18.7	10.0
PAYFKMNSPSLWKYN (listed as Blattella germanica)	56.1	4.3
PKSMLLNIFTNNLGR (listed as Blattella germanica)	52.5	7.1
PLKKETIPYYTKKFD	14.2	5.7
PNLKPSMPFGKTPVL	4.2	2.9
PVDQIIAIATDYLAN	7.5	2.9
QDVHKKLREWLSKNV	8.5	1.4
QIIAIATDYLANDAE	7.5	2.9
QKGYMVSSMTDLWEA	13.9	8.6
QKKWDPLKKETIPYY	7.7	4.3
QPNLKALREKVLGLP	6.5	5.7
QQFISSEMVEPKEAS	6.8	2.9
QTHQSVAISRYLGKQ	4.3	4.3
QTLFLLLLLLAAVSA	3.2	1.4
QVYRRLVTAVNDIEK	44.1	5.7
RCGRSMQGYPFNPCL	20.4	10.0
RCNNVGIRIYVDVVL	13.0	2.9
RDMVRRCNNVGIRIY	5.2	5.7
RGNNAIKWLVNFGVG	15.0	5.7
RHNSAYKLHFNAFEY	44.0	1.4
RIKAFLALVECPCNK	4.2	1.4

Substance	Average Magnitude of Response	Response Rate per Subject
RILLRLHRCFQVLGR	13.5	1.4
RLFGAEVGWLALHHN	35.5	1.4
RSEERLATATAKLAE	13.3	1.4
RVPFSHDDRLGFLTF	34.2	7.1
RWRQIFNMVGFRNAV (listed as Blattella germanica)	61.7	11.4
SEVTALNRQIGGTPI	3.9	2.9
SHVHFRFVPSAAVEF	3.3	1.4
SINLMFSQMYHAQLA	4.3	1.4
SPYFVTNTEKMITEF	13.6	2.9
SSLFQVANQYTGILY	50.2	10.0
STSCNVVVASQECVG	4.2	4.3
STSLVKAHSMRNSAS	19.9	4.3
SVNATVVRLQSWQSE	4.1	2.9
TGILYKARLSLDRNE	4.3	2.9
THQFNVAGSVTVDKT	5.6	2.9
TIPYYTKKFDEVVKA (listed as Blattella germanica)	311.6	11.4
TKKFDEVVKANGGYL	24.3	4.3
VAISRYLGKQFGLSG (listed as Blattella germanica)	94.9	8.6
VEALFLLMKADPSIH	4.2	1.4
VFIGKFYTEFDMENN	4.0	2.9
VIYVQIRFSVRRFHP	15.1	2.9

Same assay, conditions: sensitized subjects; 2-week extract stimulation

Substance	T cell reactivity (cytokine release) to NBGA, in words
Receptor for activated protein kinase C [RACK1]	Significant reactivity
Triosephosphate isomerase [TPI]	Significant reactivity
